Literature values as cited in patent US20240000717A1, “DRY POWDER ANTIVIRAL COMPOSITIONS AND THEIR USE FOR TREATING VIRAL INFECTION” (priority 2020, published 2024).

Tested on: hospitalized COVID-19 patients
Details: Pan et al., MedRxiv 2020

CCC(CC)COC(=O)[C@H](C)N[P@](=O)(OC[C@H]1O[C@@](C#N)(c2ccc3c(N)ncnn23)[C@H](O)[C@@H]1O)Oc1ccccc1 [remdesivir, 2-ethylbutyl ((S)-(((2R,3S,4R,5R)-5-(4-aminopyrrolo[2,1-f][1,2,4]triazin-7-yl)-5-cyano-3,4-dihydroxytetrahydrofuran-2-yl)methoxy)(phenoxy)phosphoryl)-L-alaninate]
effect on 28-day mortality: little or no effect
